Measured values: patent US9161900B2, “Cosmetic composition for inhibiting hair loss and enhanced hair growth” (AMOREPACIFIC CORPORATION, priority 2011, dated 2015)

System: LNCaP cells having the androgen receptor
Test: Androgen receptor inhibition assay (LNCaP cell viability, WST-1)
Conditions: Homo sapiens, 48 h, read-out: Cell viability (%)
Method: The human prostate cancer cell line LNCaP cells were acquired from the American Type Culture Collection (Manassas, Va., USA) and cultured for 24 hours in RPMI 1640 medium containing 10% fetal bovine serum (FBS) and 2 mM 1-glutamine in an incubator maintained at 5% CO2 and 37° C.
Cell viability of the cultured cells was measured using the WST-1 reagent.

## C[C@]12CCC(=O)C[C@@H]1CC[C@@H]1[C@@H]2CC[C@]2(C)[C@@H](O)CC[C@@H]12 [DHT, dihydrotestosterone]
  viability at 0.001 µM: 119%
